Test results reported in patent US20240342156A1, “METHODS FOR TREATING PAIN” (Xenon Pharmaceuticals Inc., priority 2019, published 2024).

How the values were obtained:
[1] = system: rat spinal nerve ligation (SNL)/Chung model of neuropathic pain; experiment: Spinal nerve ligation (SNL)/Chung model, thermal allodynia, cold plate test on lesioned paw; assay type: in vivo
Experimental: (§1) Objective: The efficacy of Compound A was assessed using the rat spinal nerve ligation (SNL)/Chung model of neuropathic pain. The SNL model in rats was developed as described previously (Chung J M, Kim H K, Chung K. “Segmental spinal nerve ligation model of neuropathic pain.” Methods Mol. Med. 99 (2004) 35-45).
Study Design. Briefly, on Day 0, von Frey and cold plate tests were used for baseline measurements of tactile and cold allodynia respectively. Post-baseline measurements, rats (171-209 g male Sprague Dawley) were anesthetized and an incision at the L4-S2 level was performed to expose the left L5 nerve. […] The wound was then sutured and the rats were allowed to recover. On Day 13, post-surgery baselines for tactile and cold allodynia were measured to verify neuropathic pain. Animals were assigned to treatment groups based on the post-surgery baseline score.
(§2) Dosing: For efficacy testing, Compound A was dosed orally once a day for 5 consecutive days from Day 14-18.
The cold plate apparatus was maintained at 4±1° C. and was surrounded by an acrylic glass enclosure. Rats were placed on the plate for a period of 5 minutes. The latency to 1st paw-withdrawal, total number of paw withdrawals, and total duration of withdrawal responses were recorded for the surgery hind paw.

[2] = system: rat spinal nerve ligation (SNL)/Chung model of neuropathic pain; experiment: Spinal nerve ligation (SNL)/Chung model, tactile allodynia, electronic von Frey test on lesioned paw; assay type: in vivo
Experimental: as §1
Study Design. Briefly, on Day 0, von Frey and cold plate tests were used for baseline measurements of tactile and cold allodynia respectively. Post-baseline measurements, rats (171-209 g male Sprague Dawley) were anesthetized and an incision at the L4-S2 level was performed to expose the left L5 nerve. A ligature was tied tightly around the L5 nerve (Chung et al.; R. Dost et al., “The anti-hyperalgesic activity of Retigabine is mediated by KCNQ potassium channel activation.” Naunyn-Schmiedeberg's Arch. Pharmacol. 369 (2004) 382-390; Gordon Blackburn-Munro et al., “The anticonvulsant retigabine attenuates nociceptive behaviors in rat models of persistent and neuropathic pain.” Eur. J Pharmacol. 460 (2003) 109-116; and Wu Y J et al., “Discovery of (S,E)-3-(2-fluorophenyl)-N-(1-(3-(pyridin-3-yloxy)phenyl)ethyl)-acrylamide as a potent and efficacious KCNQ2 (Kv7.2) opener for the treatment of neuropathic pain.” Bioorg Med. Chem. Lett. 23 (2013) 6188-91). The wound was then sutured and the rats were allowed to recover. On Day 13, post-surgery baselines for tactile and cold allodynia were measured to verify neuropathic pain. Animals were assigned to treatment groups based on the post-surgery baseline score.
as §2
Rats were placed under an inverted acrylic plastic box on a grid floor. The tip of an electronic von Frey probe was then applied with increasing force to the surgery hind paw and the force required to induce paw-withdrawal was automatically recorded. The procedure was carried out 3 times and the mean paw withdrawal force was calculated. The experimenter was double blinded to treatment.

[3] = Day 18 at 2 h, 8 mg/kg p.o. once daily Day 14-18
[4] = Day 18 at 2 h, 16 mg/kg p.o. once daily Day 14-18
[5] = Day 18 at 2 h, 24 mg/kg p.o. once daily Day 14-18

Cc1cc(N2CCc3cc(F)ccc3C2)cc(C)c1NC(=O)CC(C)(C)C [Compound A, N-[4-(6-fluoro-3,4-dihydro-TH-isoquinolin-2-yl)-2,6-dimethylphenyl]-3,3-dimethylbutanamide]
Latency to first paw-withdrawal (s), Mean ± s.e.m. ([1]; Day 14 at 2 h, 8 mg/kg p.o.): 226.8 ± 29.4 s
Latency to first paw-withdrawal, compared with Vehicle (p.o.), Δ% ([1]; Day 14 at 2 h, 8 mg/kg p.o.): +74%
Number of withdrawal responses, Mean ± s.e.m. ([1]; Day 14 at 2 h, 8 mg/kg p.o.): 2.1 ± 0.8
Number of withdrawal responses, compared with Vehicle (p.o.), Δ% ([1]; Day 14 at 2 h, 8 mg/kg p.o.): −79%
Total duration of withdrawal responses (s), Mean ± s.e.m. ([1]; Day 14 at 2 h, 8 mg/kg p.o.): 3.4 ± 3.4 s
Total duration of withdrawal responses, compared with Vehicle (p.o.), Δ% ([1]; Day 14 at 2 h, 8 mg/kg p.o.): +55%
Latency to first paw-withdrawal (s), Mean ± s.e.m. ([1]; Day 14 at 2 h, 16 mg/kg p.o.): 214.9 ± 29.2 s
Latency to first paw-withdrawal, compared with Vehicle (p.o.), Δ% ([1]; Day 14 at 2 h, 16 mg/kg p.o.): +65%
Number of withdrawal responses, Mean ± s.e.m. ([1]; Day 14 at 2 h, 16 mg/kg p.o.): 3.0 ± 1.7
Number of withdrawal responses, compared with Vehicle (p.o.), Δ% ([1]; Day 14 at 2 h, 16 mg/kg p.o.): −70%
Total duration of withdrawal responses (s), Mean ± s.e.m. ([1]; Day 14 at 2 h, 16 mg/kg p.o.): 0.8 ± 0.7 s
Total duration of withdrawal responses, compared with Vehicle (p.o.), Δ% ([1]; Day 14 at 2 h, 16 mg/kg p.o.): −64%
Latency to first paw-withdrawal (s), Mean ± s.e.m. ([1]; Day 14 at 2 h, 24 mg/kg p.o.): 280.0 ± 20.0 s
Latency to first paw-withdrawal, compared with Vehicle (p.o.), Δ% ([1]; Day 14 at 2 h, 24 mg/kg p.o.): +115%
Number of withdrawal responses, Mean ± s.e.m. ([1]; Day 14 at 2 h, 24 mg/kg p.o.): 0.9 ± 0.9
Number of withdrawal responses, compared with Vehicle (p.o.), Δ% ([1]; Day 14 at 2 h, 24 mg/kg p.o.): −91%
Total duration of withdrawal responses (s), Mean ± s.e.m. ([1]; Day 14 at 2 h, 24 mg/kg p.o.): 0.0 ± 0.0 s
Total duration of withdrawal responses, compared with Vehicle (p.o.), Δ% ([1]; Day 14 at 2 h, 24 mg/kg p.o.): −100%
thermal allodynia endpoint, comparison with morphine (128 mg/kg) ([1]; Day 18 (FIGS. 7-9), at both 16 and 24 mg/kg): outperformed morphine
Latency to first paw-withdrawal (s), Mean ± s.e.m. [1, 3]: 180.4 ± 26.5 s
Latency to first paw-withdrawal, compared with Vehicle (p.o.), Δ% [1, 3]: +92%
Number of withdrawal responses, Mean ± s.e.m. [1, 3]: 7.7 ± 2.8
Number of withdrawal responses, compared with Vehicle (p.o.), Δ% [1, 3]: −29%
Total duration of withdrawal responses (s), Mean ± s.e.m. [1, 3]: 1.3 ± 0.9 s
Total duration of withdrawal responses, compared with Vehicle (p.o.), Δ% [1, 3]: −88%
Latency to first paw-withdrawal (s), Mean ± s.e.m. [1, 4]: 257.0 ± 23.5 s
Latency to first paw-withdrawal, compared with Vehicle (p.o.), Δ% [1, 4]: +173%
Number of withdrawal responses, Mean ± s.e.m. [1, 4]: 1.3 ± 2.8
Number of withdrawal responses, compared with Vehicle (p.o.), Δ% [1, 4]: −88%
Total duration of withdrawal responses (s), Mean ± s.e.m. [1, 4]: 0.0 ± 0.0 s
Total duration of withdrawal responses, compared with Vehicle (p.o.), Δ% [1, 4]: −100%
Latency to first paw-withdrawal (s), Mean ± s.e.m. [1, 5]: 263.8 ± 24.3 s
Latency to first paw-withdrawal, compared with Vehicle (p.o.), Δ% [1, 5]: +180%
Number of withdrawal responses, Mean ± s.e.m. [1, 5]: 0.6 ± 0.5
Number of withdrawal responses, compared with Vehicle (p.o.), Δ% [1, 5]: −94%
Total duration of withdrawal responses (s), Mean ± s.e.m. [1, 5]: 0.0 ± 0.0 s
Total duration of withdrawal responses, compared with Vehicle (p.o.), Δ% [1, 5]: −100%
effect on the tactile allodynia endpoint ([2]; Day 14 and Day 18, compared to morphine): neither Compound A nor retigabine had much effect
Force inducing paw-withdrawal (g), Delta from baseline compared with Vehicle (p.o.), Δ ([2]; Day 14 at 2 h, 8 mg/kg p.o.): +6.7 g
Force inducing paw-withdrawal (g), Delta from baseline, Mean ± s.e.m. ([2]; Day 14 at 2 h, 8 mg/kg p.o.): +7.0 ± 2.5 g
Force inducing paw-withdrawal (g), Mean ± s.e.m. ([2]; Day 14 at 2 h, 8 mg/kg p.o.): 28.5 ± 3.4 g
Force inducing paw-withdrawal (g), Delta from baseline compared with Vehicle (p.o.), Δ ([2]; Day 14 at 2 h, 16 mg/kg p.o.): +5.1 g
Force inducing paw-withdrawal (g), Delta from baseline, Mean ± s.e.m. ([2]; Day 14 at 2 h, 16 mg/kg p.o.): +5.4 ± 2.1 g
Force inducing paw-withdrawal (g), Mean ± s.e.m. ([2]; Day 14 at 2 h, 16 mg/kg p.o.): 25.2 ± 1.9 g
Force inducing paw-withdrawal (g), Delta from baseline compared with Vehicle (p.o.), Δ ([2]; Day 14 at 2 h, 24 mg/kg p.o.): +7.2 g
Force inducing paw-withdrawal (g), Delta from baseline, Mean ± s.e.m. ([2]; Day 14 at 2 h, 24 mg/kg p.o.): +7.5 ± 3.1 g
Force inducing paw-withdrawal (g), Mean ± s.e.m. ([2]; Day 14 at 2 h, 24 mg/kg p.o.): 29.9 ± 2.9 g
Force inducing paw-withdrawal (g), Delta from baseline compared with Vehicle (p.o.), Δ [2, 3]: +7.8 g
Force inducing paw-withdrawal (g), Delta from baseline, Mean ± s.e.m. [2, 3]: +10.6 ± 3.5 g
Force inducing paw-withdrawal (g), Mean ± s.e.m. [2, 3]: 32.1 ± 3.6 g
Force inducing paw-withdrawal (g), Delta from baseline compared with Vehicle (p.o.), Δ [2, 4]: +2.6 g
Force inducing paw-withdrawal (g), Delta from baseline, Mean ± s.e.m. [2, 4]: +5.4 ± 2.1 g
Force inducing paw-withdrawal (g), Mean ± s.e.m. [2, 4]: 25.2 ± 2.0 g
Force inducing paw-withdrawal (g), Delta from baseline compared with Vehicle (p.o.), Δ [2, 5]: +8.7 g
Force inducing paw-withdrawal (g), Delta from baseline, Mean ± s.e.m. [2, 5]: +11.5 ± 3.0 g
Force inducing paw-withdrawal (g), Mean ± s.e.m. [2, 5]: 33.8 ± 3.6 g
